Measurements from patent publication US10323018B2 (Millennium Pharmaceuticals, Inc., priority 2015, dated 2019).

Tests used:
hNAMPT protein = hNAMPT protein (Homo sapiens (Human), UniProt P43490); assay: NAMPT enzyme assay (TR-FRET/HTRF with BodiPY ligand); format: binding; conditions: for inhibition at 1 µM: NAMPT inhibition at compound concentration 1 μM, read-out: Percent Inhibition; for IC50: NAMPT inhibition, IC50 range class
Description: As discussed above, the invention provides compounds that are useful as inhibitors of the enzyme NAMPT. The NAMPT inhibition of a compound of the invention can be measured using a variety of methods known in the art. For example, the ability of a compound of the invention to inhibit NAMPT enzyme activity can be measured using a homogeneous time resolved fluorescence (HTRF) assay using hNAMPT protein and anti 6His-Tb in buffer treated with a compound of the invention (or control e.g., DMSO) and BodiPY ligand. The TR-FRET signal can be measured using a high throughput microplate reader (e.g., Pherastar). Excitation can be carried out at 320 nm. The percent inhibition value at a single concentration of compound of the invention can be calculated relative to a control treated sample. A concentration response curve can be generated for each compound of the invention and the curve fitted to generate an IC50 value. […] To measure the inhibition of NAMPT activity hNAMPT protein stock and anti 6His-Tb (Cisbio; Cat. No. […]TLB) is diluted to 3× final concentration with assay buffer (50 mM Tris-HCl (pH 7.5), 1 mM DTT, 100 mM NaCl, 10 mM MgCl2, 0.005% Tween 20). To this solution is added a test compound or vehicle control (DMSO) and BodiPY ligand (structure below). The plate is shaken for 1-2 min sealed and incubated for 1 h at rt in the dark. The TR-FRET signal is measured using BMG Pherastar (Lanthascreen protocol on BMG Pherastar). Excitation was carried out at 320 nm, and the ratio of emission of BodiPY (520 nm) to terbium (486 nm) was determined. Concentration response curves are generated by calculating the excitation increase in test compound-treated samples relative to DMSO-treated controls. For the assay method described above, test compound percent inhibition values at a single concentration are calculated relative to control (DMSO) treated samples. Compound concentration response curves are fitted to generate IC50 values from those curves. One skilled in the art will appreciate that these values generated either as percentage inhibition at a single concentration or IC50 values are subject to experimental variation.

PC3 cells = assay: PC3 growth inhibition (Cell-titer glo, 72 hours); format: cell-based; conditions: Homo sapiens, PC-3, 72 h, read-out: Percent Viability, PC3 cells, compound concentration 1.667 μM, 72 hours
Method: The invention also provides compounds that inhibit cell growth. The ability of a compound of the invention to inhibit the growth of cells can be measured using a variety of methods known in the art. For example, the ability of a compound of the invention to inhibit the growth of PC3 cells can be measured. PC3 cells can be plated and incubated overnight under CO2. For each measurement, a compound of the invention (or vehicle e.g., DMSO) can be diluted with AIM serum free medium and added to the cell plate. The cell plate can then be incubated for 72 h under CO2. Cell-titer glo solution can be added and the plates can be incubated protected from light and the amount of luminescences can be measured. Concentration response curves can be generated by calculating the luminescence increase in test compound treated samples relative to DMSO-treated controls. Percentage remaining viability values at a single concentration can be measured. Growth inhibition (GI50) or cell viability (LD50) values can be determined from thoses curves. In one embodiment, compounds of the invention have a percent viability in PC3 line @ 1.667 uM of <1%. In one embodiment, compounds of the invention have a percent viability in PC3 line @ 1.667 uM of <2%. In one embodiment, compounds of the invention have a percent viability in PC3 line @ 1.667 uM of <3%. In one embodiment, compounds of the invention have a percent viability in PC3 line @ 1.667 uM of <4%. In one embodiment, compounds of the invention have a percent viability in PC3 line @ 1.667 uM of <5%. In one embodiment, compounds of the invention have a percent viability in PC3 line @ 1.667 uM of <10%. In one embodiment, compounds of the invention have a percent viability in PC3 line @ 1.667 uM of <50%.
To measure PC3 growth inhibition, PC3 cells that were maintained in RPMI1640 growth medium (Life Technologies; Cat. No. 11875) at 37° C. under 5% CO2 are trypsinized and diluted at a density of 8×10^4 cells/ml, 25 ul per well of cells and plated in 384-well black tissue culture plate. The cells are incubated overnight at 37° C. under 5% CO2. For each measurement, a test compound or vehicle DMSO control is diluted with AIM serum free medium and added to the cell plate. The cell plate is incubated for 72 hours at 37° C. under 5% CO2. 25 μl Cell-titer glo solution (Promega; Cat. No. G8462) is added and the cell plates are incubated for 10 minutes protected from light. The luminescence is measured. Concentration response curves are generated by calculating the luminescence increase in test compound-treated samples relative to DMSO-treated controls. Percentage remaining viability values at a single concentration, growth inhibition (GI50) or cell viability (LD50) values are determined from those curves. One skilled in the art will appreciate that these values are subject to experimental variation.

Chain of hNAMPT protein (P43490 whole entry): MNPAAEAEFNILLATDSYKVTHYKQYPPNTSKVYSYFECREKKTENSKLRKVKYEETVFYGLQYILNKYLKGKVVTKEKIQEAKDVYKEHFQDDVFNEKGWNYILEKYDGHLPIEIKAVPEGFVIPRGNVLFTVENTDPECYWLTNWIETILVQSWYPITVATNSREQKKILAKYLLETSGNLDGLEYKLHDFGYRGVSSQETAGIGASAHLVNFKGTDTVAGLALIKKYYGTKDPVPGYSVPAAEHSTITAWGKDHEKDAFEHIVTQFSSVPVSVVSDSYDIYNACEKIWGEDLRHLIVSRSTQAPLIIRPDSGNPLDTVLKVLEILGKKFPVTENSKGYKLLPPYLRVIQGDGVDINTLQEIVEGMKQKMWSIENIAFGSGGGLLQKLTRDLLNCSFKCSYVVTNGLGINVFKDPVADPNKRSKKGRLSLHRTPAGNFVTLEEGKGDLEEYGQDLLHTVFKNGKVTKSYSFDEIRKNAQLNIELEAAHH

Row | Structure (SMILES) | inhibition at 1 µM (hNAMPT protein) [%] | IC50 (hNAMPT protein) [nM] | viability at 1.667 µM (PC3 cells) [%]
1 | CCOc1cc(-c2ccc(C)s2)nc2cc(C(=O)NCCCc3nnc[nH]3)ccc12 [Compound I-223, 4-ethoxy-2-(5-methyl-2-thienyl)-N-[3-(4H-1,2,4-triazol-3-yl)propyl]quinoline-7-carboxamide] | > 99 | 10 to 50 | 3
2 | CCCc1nc(-c2ccc(Cl)cc2)nc2cc(C(=O)NCCCc3nnc[nH]3)ccc12 [Compound I-7, 2-(4-chlorophenyl)-4-propyl-N-[3-(4H-1,2,4-triazol-3-yl)propyl]quinazoline-7-carboxamide] | 97 | 10 to 50 | 1
3 | CCOc1cc(-c2ccc(F)cc2)nc2cc(C(=O)NCCc3nnc[nH]3)ccc12 [Compound I-131, 4-ethoxy-2-(4-fluorophenyl)-N-[2-(4H-1,2,4-triazol-3-yl)ethyl]quinoline-7-carboxamide] | 99 | 10 to 50 | 3
4 | COc1cc(-c2nc(-c3ccc(F)cc3)nc3cc(C(=O)NCCCc4ncc[nH]4)ccc23)ccn1 [Compound I-196, 2-(4-fluorophenyl)-N-[3-(1H-imidazol-2-yl)propyl]-4-(2-methoxypyridin-4-yl)quinazoline-7-carboxamide] | 100 | < 10 | 1
5 | CCOc1cc(-c2cc(OC)ncc2F)nc2cc(C(=O)NCc3nc4cnccc4[nH]3)ccc12 [Compound I-188, 4-ethoxy-2-(5-fluoro-2-methoxypyridin-4-yl)-N-(1H-imidazo[4,5-c]pyridin-2-ylmethyl)quinoline-7-carboxamide] | 99 | < 10 | 3
6 | COCCOc1cc(-c2ccnc(OC)c2)nc2cc(C(=O)NCc3ccn4ncnc4c3)ccc12 [Compound I-67] | 85 | – | 3
7 | CCOc1cc(-c2cc(C)nc(OC)c2)nc2cc(C(=O)NCCCc3nnc[nH]3)ccc12 [Compound I-136, 4-ethoxy-2-(2-methoxy-6-methylpyridin-4-yl)-N-[3-(4H-1,2,4-triazol-3-yl)propyl]quinoline-7-carboxamide] | 98 | < 10 | 2
8 | CCCc1cc(-c2ccc(F)cc2)nc2cc(C(=O)NCCCc3ncn[nH]3)ccc12 [Compound I-171, 2-(4-fluorophenyl)-4-propyl-N-[3-(4H-1,2,4-triazol-3-yl)propyl]quinoline-7-carboxamide] | 97 | 10 to 50 | 2
9 | CCOc1cc(-c2ccc(F)c(Cl)c2)nc2cc(C(=O)NCCCc3ncc[nH]3)ccc12 [Compound I-56, 2-(3-chloro-4-fluorophenyl)-4-ethoxy-N-[3-(1H-imidazol-2-yl)propyl]quinoline-7-carboxamide] | 99 | < 10 | 1
10 | COCCOc1cc(-c2ccc(F)cc2)nc2cc(C(=O)NCCCc3n[nH]nc3C)ccc12 [Compound I-66, 2-(4-fluorophenyl)-4-(2-methoxyethoxy)-N-[3-(5-methyl-2H-1,2,3-triazol-4-yl)propyl]quinoline-7-carboxamide] | 94 | 10 to 50 | 2
11 | CCc1nc(-c2ccc(Cl)cc2)nc2cc(C(=O)NCCCc3ncc[nH]3)ccc12 [Compound I-33, 2-(4-chlorophenyl)-4-ethyl-N-[3-(1H-imidazol-2-yl)propyl]quinazoline-7-carboxamide] | 97 | 10 to 50 | 1
12 | CCOc1cc(-c2ccnc(C)c2)nc2cc(C(=O)NCCCc3nnc[nH]3)ccc12 [Compound I-202, 4-ethoxy-2-(2-methylpyridin-4-yl)-N-[3-(4H-1,2,4-triazol-3-yl)propyl]quinoline-7-carboxamide] | 98 | 10 to 50 | 1
13 | CCOc1cc(C2CC2)nc2cc(C(=O)NCCCc3ncc[nH]3)ccc12 [Compound I-58, N-(3-(1H-Imidazol-2-yl)propyl)-2-cyclopropyl-4-ethoxyquinoline-7-carboxamide] | 96 | 10 to 50 | 1
14 | CCOc1cc(-c2ccc(Cl)s2)nc2cc(C(=O)NCCCc3nnc[nH]3)ccc12 [Compound I-125, 2-(5-chloro-2-thienyl)-4-ethoxy-N-[3-(4H-1,2,4-triazol-3-yl)propyl]quinoline-7-carboxamide] | 100 | < 10 | 2
15 | CCOc1cc(-c2cncnc2)nc2cc(C(=O)NCCCc3nnc[nH]3)ccc12 [Compound I-208, 4-ethoxy-2-(pyrimidin-5-yl)-N-[3-(4H-1,2,4-triazol-3-yl)propyl]quinoline-7-carboxamide] | 86 | > 100 | 2
16 | CCOc1cc(-c2ccc(F)cc2)nc2cc(C(=O)NCc3nc4cnccc4n3C)ccc12 [Compound I-178, 4-ethoxy-2-(4-fluorophenyl)-N-[(1-methyl-1H-imidazo[4,5-c]pyridin-2-yl)methyl]quinoline-7-carboxamide] | 99 | < 10 | 2
17 | CCOc1cc(-c2ccnc(C)c2)nc2cc(C(=O)NCCc3cnn[nH]3)ccc12 [Compound I-181, 4-ethoxy-2-(2-methylpyridin-4-yl)-N-[2-(1H-1,2,3-triazol-5-yl)ethyl]quinoline-7-carboxamide] | 86 | > 100 | 9
18 | CCOc1cc(-c2ccc(C(F)(F)F)nc2)nc2cc(C(=O)NCCCc3nnc[nH]3)ccc12 [Compound I-217, 4-ethoxy-N-[3-(4H-1,2,4-triazol-3-yl)propyl]-2-[6-(trifluoromethyl)pyridin-3-yl]quinoline-7-carboxamide] | 94 | 10 to 50 | 2
19 | CCOc1cc(-c2cc(F)cnc2OC)nc2cc(C(=O)NCCCc3nnc[nH]3)ccc12 [Compound I-161, 4-ethoxy-2-(5-fluoro-2-methoxypyridin-3-yl)-N-[3-(4H-1,2,4-triazol-3-yl)propyl]quinoline-7-carboxamide] | 97 | 10 to 50 | 2
20 | CCOc1cc(-c2ccc(Cl)s2)nc2cc(C(=O)NCCc3cnn[nH]3)ccc12 [Compound I-176, 2-(5-chloro-2-thienyl)-4-ethoxy-N-[2-(1H-1,2,3-triazol-5-yl)ethyl]quinoline-7-carboxamide] | 99 | 10 to 50 | 4
